Measurements published in US20110065715A1, “Nogo Receptor Binding Small Molecules to Promote Axonal Growth” (Yale University, priority 2007, published 2011).
Entries after “also recorded” stand apart in the source; their conditions may differ. Where two headings read alike, the source gives them in different places.

Key:
[1] = system: embryonic day 8 (E8) chick DRG neurons; assay: Neurite outgrowth assay, E8 chick DRG neurons (no Nogo receptor expressed); assay type: cell-based, chicken; conditions: Nogo receptor not yet expressed
Procedure: (§1) To test the ability of the “hit” compounds to promote neurite outgrowth, a neurite outgrowth assay was performed using each of these compounds. Dorsal root ganglia (DRG) were removed from chicken embryos at embryonic day 13 or 14, dissociated by trituration after 30 min incubation in 0.5% collagenase, and plated on laminin-coated 96-well tissue culture plates in DMEM with 10% fetal bovine serum containing 20 μM of the test compound. After two to four hours of incubation, the cells were fixed in 4% formaldehyde in phosphate buffered saline (PBS), washed in PBS, and blocked for 1 hour in PBS with 0.1% triton X-100 and 10% goat serum. The cells were incubated in rabbit anti-beta-3-tubulin (1:500) in PBS overnight and then washed 3 times with PBS. The cells were then incubated in Alexa-fluor 488 goat anti-rabbit IgG (1:500) for 6 hrs, washed with PBS, and imaged at 10× with an ImagExpress automated microscope (Molecular Devices, Inc.). Neurite outgrowth was measured with AcuityExpress software (Molecular Devices, Inc.).
In another experiment to verify the mechanism of action, a neurite outgrowth assay was performed as described above except the Dorsal root ganglia (DRG) were removed from chicken embryos at embryonic day 8 instead of day 13. At day 8, Nogo receptor is not yet expressed in the DRG. The compounds KM, HTS, 555, 5470, 585 were administered as described above and neurite outgrowth was measured. […] (FIG. 21)

[2] = system: embryonic day 13 or 14 chick DRG neurons; assay: Neurite outgrowth assay, E13/E14 chick DRG neurons; assay type: cell-based, chicken; conditions: 20 μM; for neurite outgrowth compared to the DMSO control: E13 or E14 chick DRG, two to four hours
Procedure: as §1

[3] = system: embryonic day 13 (E13) chick DRG neurons; assay: Competition neurite outgrowth assay with soluble FcNgR; assay type: cell-based, chicken; conditions: for outgrowth promoting effect when coadministered with FcNgR: with 7.5 μM FcNgR, 3.5 hours
Procedure: as §1
To further verify the mechanism of how the compounds are promoting neurite outgrowth, a competition assay was performed. […] (FIG. 12B). compounds KM, HTS or 555 were then coadministered with 7.5 μM of FcNgR. […] (FIGS. 14A-B and 17B).

[4] = system: Nogo receptor:Nogo ligand (Nogo 66) interaction; assay: DELFIA assay of Fc-NgR:Ng66 interaction; assay type: binding
Procedure: ELISA and DELFIA assays were then performed to evaluate the ability of the small molecules that were identified as “hits” in the AlphaScreens to inhibit the interaction of NgR and Nogo ligand. In the DELFIA Assay, 96 well streptavidin coated plates were blocked overnight with PBS and 10 mg/ml bovine serum albumin (BSA) (200 μl). The wells were then coated for 1.5 hours with sonicated HBH (Hanks Balanced Salt Solution/0.1 M HEPES/1 mg/ml BSA) containing Nogo 66 (B66) (0.5 μl of 10 mM/10 ml HBH) (50 μl) and then washed 4 times with 200 μl of HBH. The solution containing the inhibitor compound (50 μl in HBH) was added along with 1% FcNgR solution in HBH (50 μl), and the solution was incubated for 2 hours. The wells were washed 5 times with HBH. Alkaline phosphatase (AP) conjugated mouse anti-rat antibody (1:2500) was added and the wells were then washed 5 times with DELFIA wash buffer. The Europium (Eu) anti-mouse antibody was then added in Perlin Elmer Assay, buffer (100 μg/ml) (150 μl) and the wells were again washed 5 times with DELFIA wash buffer. The enhancer solution was added (100 μl) and the plate was read with the Perkin Elmer Victor 5 instrument 15 minutes later. (FIG. 10B) The results from the DELFIA assay indicate that compounds HTS08871, KM08071, and 503749, as well as the positive control, NEP33, inhibit the Nogo receptor:Nogo ligand (Nogo 66) interaction. (FIGS. 10D and 11A-C).

[5] = system: Nogo receptor:Nogo ligand (Nogo 66) interaction; assay: ELISA assay of NgR:Nogo ligand interaction; assay type: binding
Procedure: In the ELISA assay, 96 well streptavidin coated plates were blocked overnight with PBS and 10 mg/ml bovine serum albumin (BSA) (200 μl). The wells were then coated for 1.5 hours with sonicated HBH (Hanks Balanced Salt Solution/0.1 M HEPES/1 mg/ml BSA) containing Nogo 66 (B66) (0.5 μl of 10 mM/10 ml HBH) (50 μl) and then washed 4 times with 200 μl of HBH. The solution containing the inhibitor compound (50 μl in HBH) was added along with 1% FcNgR solution in HBH (50 μl), and the solution was incubated for 2 hours. The wells were washed 5 times with HBH. Alkaline phosphatase (AP) conjugated mouse anti-rat antibody (1:2500) was added and the wells were then washed 5 times with HBH. Colorimetric alkaline phosphatase substrate was added for 30 minutes and the plate was read with the Perkin Elmer Victor 5 instrument. (FIG. 10A). […] (FIG. 10C).

Fc-NgR:Ng66 interaction = assay: AlphaScreen of Fc-NgR:Ng66 interaction; assay type: binding
Sequence of Fc-NgR:Ng66 interaction (Q99M75 27-310 limits assumed): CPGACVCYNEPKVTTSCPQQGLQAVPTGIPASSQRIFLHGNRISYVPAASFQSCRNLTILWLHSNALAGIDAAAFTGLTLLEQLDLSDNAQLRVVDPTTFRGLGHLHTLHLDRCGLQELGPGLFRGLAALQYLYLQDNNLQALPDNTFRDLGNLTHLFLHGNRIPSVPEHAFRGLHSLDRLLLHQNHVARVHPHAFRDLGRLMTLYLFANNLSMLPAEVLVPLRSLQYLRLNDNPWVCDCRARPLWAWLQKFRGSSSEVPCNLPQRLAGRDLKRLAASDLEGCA
Description: An AlphaScreen assay was used to screen for small molecule inhibitors of the Nogo receptor-Nogo ligand interaction. The AlphaScreen assay involves matching Alpha Donor (Streptavidin) and Acceptor beads (Protein A). (FIG. 1) These beads are coated with a layer of hydrogel to provide functional groups for bioconjugation. […] However, if a biological reaction brings the Alpha Donor and Acceptor beads into close proximity, upon laser excitation, a cascade of chemical reactions produces a greatly amplified signal. (FIG. 3) Upon laser excitation, a photosensitizer inside the Donor bead converts ambient oxygen to a more excited singlet state. The singlet state oxygen molecules diffuse to produce a chemiluminescent reaction in the Acceptor bead, leading to light emission. In the absence of a specific biological interaction, the singlet state oxygen molecules produced by the Donor bead go undetected without the close proximity of the Acceptor bead.
Beads conjugated to streptavidin were used to bind biotinylated Nogo 66 (Ng66) (the 66 amino acid inhibitory domain in the carboxyl region of Nogo ligand), and beads conjugated to Protein A were used to bind an Fc-Nogo receptor (NgR) fusion protein. (FIG. 2) By virtue of the interaction of Ng66 and Fc-NgR, the acceptor beads and donor beads were brought into proximity, yielding a signal upon excitation. […] (FIGS. 4 and 6). […]

Row | Compound | effect on neurite outgrowth of day 8 DRGs [1] | neurite outgrowth compared to the DMSO control [2] | also measured
1 | CCOC(=O)C1=C(C)N=C2SCC(=O)N2C1c1ccc(N(C)C)cc1 (centres unmarked) [compound 555, ethyl 5-[4-(dimethylamino)phenyl]-7-methyl-3-oxo-2,3-dihydro-5H-[1,3]thiazolo[3,2-a]pyrimidine-6-carboxylate] | no effect | promoted neurite outgrowth | basal neurite outgrowth, E13 chick DRG neurons [2]: neurite outgrowth promoting effect; neurite outgrowth in the absence of exogenous FcNgR [3]: promoted neurite outgrowth; outgrowth promoting effect when coadministered with FcNgR [3]: inhibited; also recorded: blocking
2 | CN(C)c1ccc(C2C=Cc3ccccc3N2C(=O)c2ccccc2)cc1 (centres unmarked) [compound 536, 4-(1-benzoyl-1,2-dihydro-2-quinolinyl)-N,N-dimethylaniline] | – | promoted neurite outgrowth | –
3 | N#Cc1ccc(Cn2c(=O)sc3ccccc32)cc1 [compound 535, 4-[(2-oxo-1,3-benzothiazol-3(2H)-yl)methyl]benzonitrile] | – | promoted neurite outgrowth | –
4 | N#C/C(=C\c1ccc(C#Cc2ccccc2)cc1)C(=O)c1ccc(Cl)cc1 [KM, 2-(4-chlorobenzoyl)-3-[4-(2-phenyleth-1-ynyl)phenyl]acrylonitrile] | no effect | promoted neurite outgrowth | inhibition of Nogo receptor:Nogo 66 interaction signal, DELFIA [4]: dose dependent signal inhibition; inhibition of Nogo receptor:Nogo 66 interaction signal, DELFIA ([4]; listed as KM08071): inhibit; basal neurite outgrowth, E13 chick DRG neurons [2]: neurite outgrowth promoting effect; neurite outgrowth in the absence of exogenous FcNgR [3]: promoted neurite outgrowth; outgrowth promoting effect when coadministered with FcNgR [3]: inhibited; also recorded: blocking
5 | N.N.[Cl][Pt][Cl] [Cisplatin] | – | – | inhibition of Nogo receptor:Nogo 66 interaction, ELISA [5]: inhibit
6 | COc1ccc2c(c1)NC(c1ccc(N(C)C)cc1)c1cccn1-2 (centres unmarked) [HTS, 4′-(7-methoxy-4,5-dihydropyrrolo[1,2-a]quinoxalin-4-yl)-N,N-dimethylaniline] | no effect | promoted neurite outgrowth | inhibition of Nogo receptor:Nogo 66 interaction signal, DELFIA [4]: dose dependent signal inhibition; inhibition of Nogo receptor:Nogo 66 interaction signal, DELFIA ([4]; listed as HTS08871): inhibit; neurite outgrowth in the absence of exogenous FcNgR [3]: promoted neurite outgrowth; outgrowth promoting effect when coadministered with FcNgR [3]: inhibited; also recorded: blocking
7 | Acetyl-RIYKSVLQAVQKTDEGHPFKAYLELEITLSQEQ-Amide (Ac-RIYKSVLQAVQKTDEGHPFKAYLELEITLSQEQ-NH2) [NEP33] | – | – | interference with Ng66:Fc-NgR interaction (AlphaScreen signal) (Fc-NgR:Ng66 interaction): reducing signal; inhibition of interaction of Ng66 and Fc-NgR (AlphaScreen signal) (Fc-NgR:Ng66 interaction; 20 hours incubation, concentration between 1.25 μM and 20 μM, beads 5 μg/ml): inhibited; inhibition of Nogo receptor:Nogo 66 interaction signal, DELFIA [4]: inhibit; inhibition of Nogo receptor:Nogo 66 interaction, ELISA [5]: inhibit
8 | CN1C(=O)C(O)(CC(=O)c2ccc(Cl)cc2)c2ccccc21 (centres unmarked) [compound 592, 3-[2-(4-chlorophenyl)-2-oxoethyl]-3-hydroxy-1-methyl-1,3-dihydro-2H-indol-2-one] | – | inhibited neurite outgrowth | –
9 | O=C(c1ccc(Cl)cc1)c1coc2ccc(O)cc12 [compound 5470, (4-chlorophenyl)(5-hydroxy-1-benzofuran-3-yl)methanone] | no effect | promoted neurite outgrowth | basal neurite outgrowth, E14 chick DRG neurons [2]: neurite outgrowth promoting effect
10 | Cc1nccc(-c2cccc(N/N=C(\C#N)C(=O)c3ccc(Cl)cc3)c2)n1 [KMO2502] | – | inhibited neurite outgrowth | –
11 | Cc1oc2ccc(O)cc2c1C(=O)c1ccc(Cl)cc1 [compound 585, (4-chlorophenyl)(5-hydroxy-2-methyl-1-benzofuran-3-yl)methanone] | no effect | promoted neurite outgrowth | basal neurite outgrowth, E14 chick DRG neurons [2]: neurite outgrowth promoting effect
12 | CN(C)c1ccc(Cc2ccc(N(C)C)cc2)cc1 [BTB11222, N1,N1-dimethyl-4-[4-(dimethylamino)benzyl]aniline] | – | promoted neurite outgrowth | –
13 | Cc1ccc2occ(C(=O)c3ccc(Cl)cc3)c(=O)c2c1 [compound 5472, 3-(4-chlorobenzoyl)-6-methyl-4H-chromen-4-one] | – | promoted neurite outgrowth | –
14 | O=C(CC1(O)C(=O)Nc2ccc(Br)cc21)c1ccc(Cl)cc1 (centres unmarked) [compound 5475, 5-bromo-3-[2-(4-chlorophenyl)-2-oxoethyl]-3-hydroxy-1,3-dihydro-2H-indol-2-one] | – | inhibited neurite outgrowth | –
15 | CCc1cccc2c(C(C)=O)cn(Cc3ccc(C#N)cc3)c12 [compound 794, 4-[(3-acetyl-7-ethyl-1H-indol-1-yl)methyl]benzonitrile] | – | promoted neurite outgrowth | –
16 | CCN1C(=O)C(O)(CC(=O)c2ccc(Cl)cc2)c2ccccc21 (centres unmarked) [compound 664, 3-[2-(4-chlorophenyl)-2-oxoethyl]-1-ethyl-3-hydroxy-1,3-dihydro-2H-indol-2-one] | – | inhibited neurite outgrowth | –
